The test system of series [1] is T4 lymphocytes (CEM cell line). As to the kind of experiment: Cytotoxicity in uninfected CEM cells (XTT toxicity control). The note with it: read-out: Cell data (μM) CC50: 50% cytotoxic concentration; uninfected CEM cells, 6 days, XTT. As to the method: (§1) The anti-HIV drug testing was performed at NCI based on a protocol described by Weislow et al.^36 All compounds were dissolved in dimethyl sulfoxide and diluted 1:100 in cell culture medium. Exponentially growing T4 lymphocytes (CEM cell line) were added at 5000 cells per well. Frozen virus stock solutions were thawed immediately before use, suspended in complete medium to yield the desired multiplicity of infection (m. o. i.≈0.1), and added to the microtiter wells, resulting in a 1:200 final dilution of the compound. Uninfected cells with the compound served as a toxicity control, and infected and uninfected cells without the compound served as basic controls.
(§2) Cultures were incubated at 37° C. in a 5% CO2 atmosphere for 6 days. The tetrazolium salt, XTT was added to all wells, and cultures were incubated to allow formazan color development by viable cells. Individual wells were analyzed spectrophotometrically to quantitate formazan production, and in addition were viewed microscopically for detection of viable cells and confirmation of protective activity.
A general note: Tetrazolium dyes change colour on reduction, which living cells bring about.

The target in series [2] is T1, purified HIV-1 integrase (HIV-1 IN) (Human immunodeficiency virus type 1 group M subtype B, UniProt P12497).
Protocol: (§3) To analyze the extent of 3′-processing and strand transfer using 5′-end labeled substrates, AE118 was 5′-end labeled using T4 polynucleotide kinase (Gibco BRL) and γ[^32P]-ATP (Dupont-NEN). To determine the extent of 30mer target strand generation during disintegration, AE157 was 5′-end labeled and annealed to AE156, AE146, and AE117. The kinase was heat-inactivated and AE117 was added to the same final concentration. The mixture was heated at 95° C., allowed to cool slowly to room temperature, and run through a G-25 Sephadex quick spin column (Boehringer Mannheim, Indianapolis, Ind.) to separate annealed double-stranded oligonucleotide from unincorporated label.
(§4) To determine the extent of 3′-processing and strand transfer, integrase was preincubated at a final concentration of 200 nM with the inhibitor in a reaction buffer (50 mM NaCl, 1 mM HEPES, pH 7.5, 50 μM EDTA, 50 μM dithiothreitol, 10% glycerol (w/v), 7.5 mM MnCl2, 0.1 mg/ml bovine serum albumin, 10 mM 2-mercaptoethanol, 10% dimethyl sulfoxide, and 25 mM MOPS, pH 7.2) at 30° C. for 30 minutes. Then, 20 nM of the 5′-end ^32P labeled linear oligonucleotide substrate was added, and incubation was continued for an additional one hour. Reactions were quenched by the addition of an equal volume (16 μ) of loading dye (98% deionized formamide, 10 mM EDTA, 0.025% xylene cyanol and 0.025% bromophenol blue). An aliquot (5 μl) was electrophoresed on a denaturing 20% polyacrylamide gel (0.09 M tris-borate pH 8.3, 2 mM EDTA, 20% acrylamide, 8M urea).
(§5) Gels were dried, exposed in a PhosphorImager cassette, and analyzed using a Molecular Dynamics PhosphorImager (Sunnyvale, Calif.). Percent inhibition was calculated using the following equation: % I=100×[1−(D−C)/(N−C)] where C, N, and D are the fractions of 21-mer substrate converted to 19-mer (3′-processing product) or strand transfer products for DNA alone (C), DNA plus integrase (N), and integrase plus drug (D). All IC50 values were determined by plotting the drug concentration versus percent inhibition, and determining the concentration which produced 50% inhibition.
In series [3] the target is T1, purified HIV-1 integrase (HIV-1 IN). Kind of series: biochemical.
Protocol: as §3, §4, §5
A short description of series [4]: Cytotoxicity in uninfected CEM cells (XTT toxicity control). The note with it: human, uninfected CEM cells (T4 lymphocytes). As to the method: as §1, §2
A further series concerns the target T2, HIV-1 IN (Human immunodeficiency virus type 1 group M subtype B, UniProt P12497).
T2 construct: An expression system for the wild-type integrase and the IN^50–212 (F185K) were obtained from the Laboratory of Molecular Biology, NIDDK; made in house
As to the kind of experiment: HIV-1 integrase inhibition with Mg+2 as cofactor (gel assay). The format is biochemical. The note with it: compared with Mn+2, 1000, 333, 111, 37 μM. How it is done: FIGS. 2 and 3 show concentration dependent inhibition of HIV-1 IN by thiazolothiazepines 1, 19, and 20 using Mn^+2 (FIG. 2) and Mg^+2 (FIG. 3) as a cofactor. Lane 1, DNA alone, lanes 2 and 15 DNA and integrase, lanes 3–6, 7–10, 11–14 DNA, integrase, and compounds 1, 19, and 20 at 1000, 333, 111, and 37 μM, respectively. See Table 1 for compound identifiers 1, 19, 20.
A 21-mer oligonucleotide corresponding to the last 21 bases on the HIV-1 viral DNA in the U5 region of long terminal repeat (LTR) was radiolabeled with ^32P. This is shown in the FIGS. 2 and 3 as a band corresponding to DNA alone. Integrase will cleave the last two bases of this DNA in the presence of Mn^+2 or Mg^+2 to give a 19-mer DNA substrate (lane 2) which runs faster on the gel and is indicated as 19-mer on the Figures. When an inhibitor is added this process is blocked, therefore the original 21-mer DNA would not be cut. When an inhibitor is added at various concentrations, percent inhibition at every concentration will be calculated by quantification of the intensity of each band using an Imagequant program.
The gels are run using polyacrylamide according to the standard procedures. Upon completion of electrophoresis run, the gels are dried and exposed to a phosphorimager cassette. The cassettes are analyzed by the phosphorimager, and the bands are shown on a computer screen. The intensity of each band is quantitated, plotted against concentrations of drugs, and the IC50 values are calculated from the graphs.

Another series deals with HIV-1 infected CEM cells. As to the kind of experiment: Anti-HIV assay in cultured CEM cells (NCI XTT protocol). It counts as cell-based. How it is done: as §1, §2

Values joined by “and” are separate entries in the source; they are usually repeats but may differ in a detail not shown here. Identical values can stand only once. Like-named read-outs stand apart in the source and are kept apart here.

Usually IC50 stands for the concentration that inhibits the measured activity by half. The low end stands for higher potency, the high end for lower potency. As a reminder, the melting point is the temperature, or range, at which the solid turns liquid.
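Wherever IC50 is given: integrase at 200 nM exposed to inhibitor 30 min at 30 °C, then 1 h with 20 nM 5′-32P-labelled 21-mer DNA, 3′-processing or strand transfer products quantified on denaturing gels versus no-drug enzyme.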

Take `COC1Sc2ccccc2C(=O)N2CCCC12` (stereo not drawn) [Compound 22]: the CC50 in series [1] was more than 200 µM. `O=C1Sc2ccccc2Cn2cccc21` [Compound 28]: the IC50 in series [2] is 590 µM and 300 µM. Also, the CC50 in series [1] is more than 200 µM.

Compound `CN1CCN(Cc2ccc3n2Cc2ccccc2SC3c2ccccc2)CC1` (racemic) [Compound 31, (±)-3-[(4-Methylpiperazin-1-yl)methyl]-11-phenyl-5H,11H-pyrrolo [2,1-c][1,4]benzothiazepine] yielded a melting point of 161 to 162 °C. On to `COc1ccc2c(c1)C(=O)N1C[S+]([O-])CC1C(=O)S2` (racemic) [Compound 18, (±)-cis-1,11a-Dihydro-7-methoxy-3H,5H,11H-thiazolo[4,3-c][1,4]benzothiazepine-5,11-dione 2-Oxide], for which the melting point fell in the range of 172 to 174 °C. For the same compound, the IC50 in series [3] is 142 µM and 84.5 µM. `O=C1Sc2ccc(Cl)cc2C(=O)N2C[S+]([O-])CC12` (racemic) [Compound 17, (±)-cis-7-Chloro-1,11a-dihydro-3H,5H,11H-thiazolo[4,3-c][1,4]benzothiazepine-5,11-dione 2-Oxide] displayed a melting point of 213 to 215 °C. For the same compound, the IC50 in series [3] was 280 µM and 200 µM and 260 µM and 215 µM. On to `O=C1c2ccccc2SC(O)C2CCCN12` (stereo not drawn) [Compound 25], for which the CC50 at 6 days in series [4] was more than 200 µM. Consider `O=C1Sc2ccccc2C(=O)N2CCSC12` (stereo not drawn) [Compound 1], for which the IC50 in series [3] is 110 µM and 146 µM. The “activity against IN in the presence of Mg+2” value (shortened to “activity”) on HIV-1 IN was “active in the presence of Mg^+2 within the same concentration range as in Mn^+2”. The same compound displayed a CC50 at 6 days in series [4] of more than 200 µM. Also, the “therapeutic index (TI=CC50/EC50)” value in the series with HIV-1 infected CEM cells is on record as more than 1.8. Turning to `CC(=O)OC1Sc2ccccc2C(=O)N2CCCC12` (stereo not drawn) [Compound 21], the CC50 at 6 days in series [4] was more than 200 µM. Same read-out and setting: then `COc1cc2c(cc1OC)C(=O)N1CCCC1CS2` (stereo not drawn) [Compound 24], with more than 200 µM. `O=C1Sc2ccc(Cl)cc2C(=O)N2CCSC12` (racemic) [Compound 2, (±)-7-Chloro-2,3-dihydro-5H-thiazolo[2,3-c][1,4]benzothiazepine-5,11 (11aH)-dione]: the CC50 in series [1] was more than 50 µM.

For the compound `O=C1Sc2cc3ccccc3cc2C(=O)N2CSCC12` (racemic) [Compound 20, (±)-1,13a-Dihydro-3H,5H,11H-naphto[2,3-f]thiazolo[4,3-c][1,4]thiazepine-5,13-dione], the IC50 in series [3] is 92 µM and 100 µM. The “activity” value at HIV-1 IN is “active in the presence of Mg^+2 within the same concentration range as in Mn^+2”. Besides, in series [4], the CC50 at 6 days is more than 316 µM. On to `O=C1Sc2ccc(Cl)cc2C(=O)N2CSCC12` (racemic) [Compound 6, (±)-7-Chloro-1,11a-dihydro-3H,5H,11H-thiazolo[4,3-c][1,4]benzothiazepine-5,11-dione], for which the melting point is 204 to 205 °C. In addition, the CC50 in series [1] was more than 100 µM. The compound `O=C1Sc2ccc(Br)cc2C(=O)N2CCSC12` (racemic) [Compound 3, (±)-7-Bromo-2,3-dihydro-5H-thiazolo[2,3-c][1,4]benzothiazepine-5,11 (11aH)-dione] came in with a melting point of 219 to 220 °C.

For the compound `O=C1Sc2cc3ccccc3cc2C(=O)N2CCSC12` (racemic) [Compound 19, (±)-2,3-Dihydro-5H-naphto[2,3-f]thiazolo[2,3-c][1,4]thiazepine-5,13(13aH)-dione], it took 47 ± 6 µM to reach half-maximal inhibition in series [3] (IC50). In addition, the “activity” value on HIV-1 IN is “active in the presence of Mg^+2 within the same concentration range as in Mn^+2”. In addition, the CC50 at 6 days in series [4] is more than 316 µM. Further, the “therapeutic index (TI=CC50/EC50)” value in the series with HIV-1 infected CEM cells is on record as more than 5.

For `Cc1ccc2c(c1)C(=O)N1CC[S+]([O-])C1C(=O)S2` (racemic) [Compound 15, (±)-cis-2,3-Dihydro-7-methyl-5H-thiazolo[2,3-c][1,4]benzothiazepine-5,11 (11aH)-dione 1-Oxide], the melting point lay within 211 to 212 °C. The compound also came in with an IC50 in series [3] of 590 ± 350 µM. Besides, the CC50 at 6 days in series [4] is more than 100 µM. The compound `O=C1Sc2cc([N+](=O)[O-])ccc2C(=O)N2CSCC12` (racemic) [Compound 9, (±)-1,11a-Dihydro-8-nitro-3H,5H,11H-thiazolo[4,3-c][1,4]benzothiazepine-5,11-dione] came in with a melting point of 231 to 232 °C. Besides, in series [1], the CC50 was more than 50 µM.

For `Cc1ccc2c(c1)C(=O)N1CSCC1C(=O)S2` (racemic) [Compound 8, (±)-1,11a-Dihydro-7-methyl-3H,5H,11H-thiazolo[4,3-c][1,4]benzothiazepine-5,11-dione], the CC50 in series [1] turned out to be 35 µM. Take `O=C1c2ccccc2SC(O)(c2ccccc2)C2CCCN12` (racemic) [Compound 26, (±)-2,3,11,11a-Tetrahydro-11-hydroxy-11-phenyl-1H,5H-pyrrolo [2,1-c][1,4]benzothiazepin-5-one]: the melting point was 137 to 141 °C. `COc1cc2c(cc1OC)C(=O)N1CCCC1C(=O)S2` (stereo not drawn) [Compound 13]: the CC50 at 6 days in series [4] was more than 200 µM.

Compound `O=C1Sc2ccc(Br)cc2C(=O)N2CSCC12` (racemic) [Compound 7, (±)-7-Bromo-1,11a-dihydro-3H,5H,11H-thiazolo[4,3-c][1,4]benzothiazepine-5,11-dione] showed a melting point of 213 to 214 °C. In series [1], the CC50 was more than 200 µM. Turning to `O=C1Sc2ccccc2C(=O)N2CCCCC12` (stereo not drawn) [Compound 14], the IC50 in series [3] is 343 µM and 406 µM and 495 µM. In series [4], this compound came in with a CC50 at 6 days of more than 200 µM.

Consider `Cc1ccc2c(c1)C(=O)N1CCSC1C(=O)S2` (racemic) [Compound 4, (±)-2,3-Dihydro-7-methyl-5H-thiazolo[2,3-c][1,4]benzothiazepine-5,11 (11aH)-dione], for which, in series [3], the IC50 was 55 µM and 64 µM.

`CN(C)Cc1ccc2n1C(=O)c1ccccc1SC2c1ccc(F)cc1` (stereo not drawn) [Compound 30]: the IC50 in series [3] was more than 1000 µM. For `CCOC(=O)C1Sc2ccccc2C(=O)n2cccc21` (stereo not drawn) [Compound 29], the IC50 in series [3] is more than 1000 µM. As for `COc1ccc2c(c1)C(=O)N1CSCC1C(=O)S2` (racemic) [Compound 10, (±)-1,11a-dihydro-7-methoxy-3H,5H, 11H-thiazolo[4,3-c][1,4]benzothiazepine-5,11-dione], in series [1], the CC50 was more than 200 µM.

As for `O=C1Sc2ccccc2C(=O)N2CSCC12` (racemic) [Compound 5], the IC50 in series [3] is 227 µM and 208 µM. The same compound came in with a CC50 at 6 days in series [4] of more than 200 µM. Turning to `COc1cc2c(cc1OC)C(=O)N1CSCC1C(=O)S2` (stereo not drawn) [Compound 11], the IC50 in series [3] was 330 µM and 670 µM and 630 µM. The same compound displayed a CC50 at 6 days in series [4] of more than 50 µM. Consider `CN1CCN([C@@H]2Sc3ccccc3C(=O)N3CCC[C@@H]23)CC1` (racemic) [Compound 27, (±)-cis-2,3,11,11a-Tetrahydro-11-(4-methylpiperazin-1-yl)-1H,5H-pyrrolo[2,1-c][1,4]benzothiazepin-5-one], for which the CC50 in series [1] was more than 125 µM. Consider `O=C1Sc2ccccc2C(=O)N2C[S+]([O-])CC12` (racemic) [Compound 16, (±)-cis-1,11a-Dihydro-3H,5H,11H-thiazolo[4,3-c][1,4]benzothiazepine-5,11-dione 2-oxide], for which the half-inhibitory concentration (IC50) in series [3] was 215 µM and 222 µM and 200 µM and 185 µM.
